Reference: paper PMC12320831, “Synthesis and Biological Evaluation of New Chalcogen Semicarbazone (S, Se) and Their Azole Derivatives against Chagas Disease” (Journal of Medicinal Chemistry, 2024)
Where “and” joins values, the source holds several entries; their conditions need not be identical. Identical values can stand only once. Entries after “also recorded” stand apart in the source; their conditions may differ. Counter-ions that a name gives are not always drawn. Like-named read-outs stand apart in the source and are kept apart here.

What was measured:
[1] = biological target: T1, recombinant Cz (cruzain) (Trypanosoma cruzi, UniProt P25779); test: biochemical; conditions: for Cz inhibition (%): 10 µM; for inhibition at 10 µM: read-out: Cz inhibition (%), 10 µM; for SICz: ratio between IC50 hCatL and IC50 Cz
T1 construct: Cz was expressed and purified as described in da Silva et al; made in house
T1 sequence (P25779 123-337 limits assumed): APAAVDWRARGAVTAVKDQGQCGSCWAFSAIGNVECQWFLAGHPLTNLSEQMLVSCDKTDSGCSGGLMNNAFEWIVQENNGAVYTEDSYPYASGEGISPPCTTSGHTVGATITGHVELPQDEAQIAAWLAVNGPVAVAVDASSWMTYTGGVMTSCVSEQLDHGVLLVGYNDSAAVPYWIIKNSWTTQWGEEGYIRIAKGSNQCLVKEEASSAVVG
Experimental: The screening assay was performed using 1 nM of Cz diluted in 0.1 M sodium acetate pH 5.5, 1 mM dithiothreitol (DTT), and 0.01% Triton X-100. Cz was expressed and purified as described in da Silva et al. The reaction starts after 10 min incubating the enzyme with the compounds (10 μM), when adding 2.5 μM of the substrate Z-FR-AMC final concentration (Z-Phe-Arg-amidomethylcoumarin, Sigma-Aldrich, C9521) diluted in the same assay buffer (final volume of 30 μL). The experiment was performed for 10 min. […] The DRC was performed with at least nine different concentrations of the inhibitors, diluted by 2-fold serial dilution, ranging from […] to 10 μM.
(§1) All experiments were accomplished in a 384-well black microplate, using a Synergy HTX (Biotek) plate reader at 25 °C with absorption/emission wavelengths of 360/460 nm. All assays were performed in triplicate wells and DMSO was used as a vehicle control. Enzymatic activity was measured and normalized to DMSO controls, and the inhibitor E-64 (10 μM) was used as a positive control for all assays. All experiments were performed in triplicates, with at least two independent assays (n = 6 data points). IC50 values were determined through nonlinear regression. Obtained data were treated and analyzed using GraphPad Prism 9.0 (GraphPad Software, La Jolla, California).

[2] = tested on: C2C12 cells; test: Host cell cytotoxicity (C2C12 viability); assay type: cell-based, Mouse; conditions: 10 µM; < 50% viability considered cytotoxic
Experimental: (§2) Antiparasitic activity and cytotoxicity of compounds were determined as described before (da Silva et al., Boudreau et al.). Mouse myoblasts cell line C2C12 (ATCCCRL-1772), were maintained in high glucose (4.5 g/L glucose) Dulbecco’s modified Eagle’s medium (DMEM Gibco), supplemented with 1% penicillin–streptomycin 10,000 U/mL (Gibco) and 5% fetal bovine serum (FBS, Sigma-Aldrich) at 37 °C with 5% CO2. parasites (CAI/72 strain, DTU TcI) were maintained by weekly coinfection with C2C12 cells. For all activity assays, C2C12 cells were infected at a 10:1 parasite-to-cell ratio with culture-derived trypomastigotes, which were harvested from the supernatant of infected C2C12 cells. After adding compounds to 384-well black clear-bottom plates (Greiner cat. no. 781091), trypomastigotes (7000 parasites/well) and C2C12 cells (700 cells/well) were seeded in a total volume of 50 μL of DMEM per well in the 384-well plates. Compounds were first tested at 10 μM. […] After 48 h at 37 °C and 5% CO2, plates were fixed with 4% formaldehyde solution for at least 1 h, washed with 1× PBS, and stained with 5 μg/mL of 4′,6-diamidino-2-phenylindole (DAPI) for at least 1 h prior to reading. Plates were imaged with the automated ImageXpress MicroXL microscope (Molecular Devices) and analyzed by MetaXpress software (Molecular Devices) using a custom module optimized for this assay. Infection levels (parasites per host cell) were normalized to the positive control (40 μM BNZ) and negative control (DMSO). Antiparasitic activity (EC50) ± standard deviation (SD) and host cell cytotoxicity (C2C12 viability) values were determined from the DRC using Prism software (GraphPad Software, La Jolla, CA). Every assay has three biological replicates, each in triplicates (n = 9 data points).

[3] = tested on: T. cruzi CAI/72 strain; test: Antiparasitic activity in C2C12 cells infected with T. cruzi CAI/72 (image-based assay); assay type: cell-based; conditions: for EC50: mean of three experiments in triplicate (n = 9) ± SD
Experimental: Antiparasitic activity and cytotoxicity of compounds were determined as described before (da Silva et al., Boudreau et al.). Mouse myoblasts cell line C2C12 (ATCCCRL-1772), were maintained in high glucose (4.5 g/L glucose) Dulbecco’s modified Eagle’s medium (DMEM Gibco), supplemented with 1% penicillin–streptomycin 10,000 U/mL (Gibco) and 5% fetal bovine serum (FBS, Sigma-Aldrich) at 37 °C with 5% CO2. parasites (CAI/72 strain, DTU TcI) were maintained by weekly coinfection with C2C12 cells. For all activity assays, C2C12 cells were infected at a 10:1 parasite-to-cell ratio with culture-derived trypomastigotes, which were harvested from the supernatant of infected C2C12 cells. After adding compounds to 384-well black clear-bottom plates (Greiner cat. no. 781091), trypomastigotes (7000 parasites/well) and C2C12 cells (700 cells/well) were seeded in a total volume of 50 μL of DMEM per well in the 384-well plates. Compounds were first tested at 10 μM. […] Plates were imaged with the automated ImageXpress MicroXL microscope (Molecular Devices) and analyzed by MetaXpress software (Molecular Devices) using a custom module optimized for this assay. Infection levels (parasites per host cell) were normalized to the positive control (40 μM BNZ) and negative control (DMSO). Antiparasitic activity (EC50) ± standard deviation (SD) and host cell cytotoxicity (C2C12 viability) values were determined from the DRC using Prism software (GraphPad Software, La Jolla, CA). Every assay has three biological replicates, each in triplicates (n = 9 data points).

[4] = Host cell cytotoxicity (C2C12 viability); assay type: cell-based, Mouse; conditions: mouse; for viability at 48 h, 10 µM: < 50% viability considered cytotoxic; for CC50 at 48 h: viability calculated at 10 μM
Experimental: as §2

[5] = biological target: T2, Recombinant human cathepsin L (hCatL) (Homo sapiens, UniProt P07711); test: Human cathepsin L inhibition assay (Z-FR-AMC substrate); assay type: biochemical
T2 construct: purchased R&D Systems 952-CY
T2 sequence (P07711 114-333): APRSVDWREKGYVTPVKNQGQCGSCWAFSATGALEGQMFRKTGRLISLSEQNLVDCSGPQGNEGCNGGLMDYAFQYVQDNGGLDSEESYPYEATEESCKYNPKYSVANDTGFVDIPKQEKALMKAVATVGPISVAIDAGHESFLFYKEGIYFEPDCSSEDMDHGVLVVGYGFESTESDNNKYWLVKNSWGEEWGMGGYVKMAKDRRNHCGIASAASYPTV
Experimental: Compounds were screened at 10 μM. […] The experiment was performed for 30 min.
as §1

[6] = DPPH radical scavenging (antioxidant) assay; conditions: for Percentage of inhibited DPPH (2 h): mean ± SEM
Experimental: The antioxidant capacity of the selected Se compound was tested using the DPPH assay described by Astrain-Redin. The compound was tested at three different concentrations (0.06, 0.03, and 0.015 mg/mL) and we used two positive controls: ascorbic acid (ASC) and trolox (TRO). A solution of DPPH (2,2-diphenyl-1-picrylhydrazyl) in methanol (0.04 mg/mL, preserved in the dark) was prepared and 100 μL of this stock solution was added to 100 μL of tested compound solution. The color change, from purple (radical) to yellow (reduced), was measured at 517 nm at different time points (0, 5, 15, 30, 60, 90, and 120 min). All measurements were carried out in triplicate and recorded on a BioTek PowerWave XS spectrophotometer (Biotek). Data were collected using BioTek Gen5Microplate reader and Imager software (Agilent, version 3.12). Results are expressed as a percentage of inhibited DPPH ± standard error of the mean (SEM), calculated using the following formula %inhibitedDPPH=Acontrol−Asample/Acontrol×100 where A control refers to the absorbance of the negative control and A sample refers to the absorbance of the tested compound.

[7] = Compound stability (authors' observation); assay type: physicochemical; conditions: reason for discontinuation
[8] = 10 µM, C2C12 infected cells, read-out: Anti-Tc CAI/72 activity (%)
[9] = mean of two experiments in triplicate (n = 6) ± SEM, read-out: IC50 Cz
[10] = C2C12 myoblast cells infected with trypomastigotes
[11] = no DRC performed, bound from the screen at 10 µM, read-out: IC50 hCatL
[12] = Trypanosoma cruzi, 10 µM, C2C12 infected cells, read-out: Anti-Tc CAI/72 activity (%)
[13] = IC50 Cz, single biological replicate (Figure 3), each of two biological replicates in triplicate
[14] = each of two biological replicates in triplicate, read-out: IC50 hCatL, single biological replicate (Figure 4)
[15] = mean of two experiments in triplicate (n = 6) ± SEM, read-out: IC50 hCatL
[16] = Trypanosoma cruzi, C2C12, 48 h, read-out: EC50 Tc CAI/72, intracellular amastigotes in C2C12 cells, 48 h
[17] = read-out: EC50 Tc CAI/72, intracellular amastigotes in C2C12 cells, 48 h
[18] = Trypanosoma cruzi, C2C12, read-out: Anti-Tc CAI/72 activity (%)

Compound	Cz inhibition (%) [1] [%]	IC50 [1, 9] [nM]	inhibition at 10 µM [1] [%]	viability at 48 h, 10 µM [4, 10] [%]	inhibition at 10 µM [5] [%]	inhibition at 10 µM [3, 12] [%]	SICz [1]	viability at 48 h, 10 µM [4] [%]	IC50 [5, 15] [nM]	other results
(E)-2-(1-(4-Cyanophenyl)ethylidene)hydrazine-1-carbothioamide [Compound S1e]	98.77	–	–	–	–	–	–	–	–	C2C12 viability (%) [2]: >100%; inhibition [3, 8]: 31.6%
C/C(=N\Nc1nc(C)cs1)c1cccc([N+](=O)[O-])c1 [Compound S2h, (E)-4-Methyl-2-(2-(1-(3-nitrophenyl)ethylidene)hydrazineyl)thiazole Hydrochloride]	–	1280 ± 1120	96.9	> 100	12.1	28.8	–	–	–	IC50 [5, 11]: > 10000 nM
C/C(=N\Nc1nc(C)cs1)c1cccc(Cl)c1 [Compound S2i, (E)-2-(2-(1-(3-Chlorophenyl)ethylidene)hydrazineyl)-4-methylthiazole]	–	142 ± 79.2	97.5	> 100	24.7	49.3	–	–	–	IC50 [5, 11]: > 10000 nM
O=C1O[C@H]([C@@H](O)CO)C(O)=C1O [ASC, ascorbic acid]	–	–	–	–	–	–	–	–	–	Percentage of inhibited DPPH (2 h) ([6]; 0,03 mg/ml): 80,33 ± 0,33%; Percentage of inhibited DPPH (2 h) ([6]; 0,06 mg/ml): 80,33 ± 0,67%; time to reach the plateau of the DPPH kinetic curve ([6]; 0.015 mg/mL): 0 min; Percentage of inhibited DPPH (2 h) ([6]; 0,015 mg/ml): 65,33 ± 2,03%
C/C(=N\NC(N)=[Se])c1ccc(Br)cc1 [Se1f, (E)-2-(1-(4-Bromophenyl)ethylidene)hydrazine-1-carboselenoamide]	101.08	14.3 ± 3.57	> 85	–	97.3	69.5	7.42	> 100	106 ± 14.9	IC50 [1, 13]: 17.8 nM and 10.7 nM; CC50 at 48 h [4]: > 10000 nM; IC50 [5, 14]: 91.3 nM and 121 nM; EC50 [3, 16]: < 1000 nM; EC50 [3, 17]: 770 ± 170 nM
C/C(=N\NC(N)=[Se])c1ccc(C#N)cc1 [Se1e, (E)-2-(1-(4-Cyanophenyl)ethylidene)hydrazine-1-carboselenoamide]	–	–	104	–	–	–	–	> 100	–	stability of the compound [7]: stability problems; also recorded: lack of stability; inhibition at 10 µM [3, 18]: 57.1%
Cc1c(C)c2c(c(C)c1O)CCC(C)(C(=O)O)O2 (centres unmarked) [TRO, trolox]	–	–	–	–	–	–	–	–	–	Percentage of inhibited DPPH (2 h) ([6]; 0,03 mg/ml): 79,33 ± 0,88%; Percentage of inhibited DPPH (2 h) ([6]; 0,06 mg/ml): 79,67 ± 0,67%; time to reach the plateau of the DPPH kinetic curve ([6]; 0.015 mg/mL): 5 min; percentage of activity in the DPPH kinetic curve ([6]; 0.015 mg/mL, kinetic curve over 2 h): 80%; Percentage of inhibited DPPH (2 h) ([6]; 0,015 mg/ml): 79,33 ± 1,33%
C/C(=N\NC(N)=[Se])c1cccc([N+](=O)[O-])c1 [Se1h, (E)-2-(1-(3-Nitrophenyl)ethylidene)hydrazine-1-carboselenoamide]	–	–	104	–	98.7	41	10.22	97.3	9.32 ± 0.38	IC50 ([1]; IC50 Cz, mean of two experiments in triplicate (n = 6) ± SEM): 0.91 ± 0.18 nM
C/C(=N\NC(N)=S)c1cccc([N+](=O)[O-])c1 [Compound S1h, (E)-2-(1-(3-Nitrophenyl)ethylidene)hydrazine-1-carbothioamide]	–	1.15 ± 0.74	100	> 100	94.5	24.8	164.83	–	190 ± 18.4	–
(E)-2-(1-(Thiophen-3-yl)ethylidene)hydrazine-1-carbothioamide [Compound S1l]	62.83	–	–	–	–	–	–	–	–	C2C12 viability (%) [2]: >100%; inhibition [3, 8]: 10.9%
(E)-2-(1-((3r,5r,7r)-Adamantan-1-yl)ethylidene)hydrazine-1-carbothioamide [Compound S1q]	5.06	–	–	–	–	–	–	–	–	C2C12 viability (%) [2]: >100%; inhibition [3, 8]: 38.7%
C/C(=N\Nc1nc(C)c[se]1)c1cccc(Cl)c1.Cl [Se2i, (E)-2-(2-(1-(3-Chlorophenyl)ethylidene)hydrazineyl)-4-methyl-1,3-selenazole Hydrochloride]	102.55	81.7 ± 17.9	> 85	–	98	–	5.55	> 100	453.7 ± 4.4	IC50 [1, 13]: 63.8 nM and 99.5 nM; CC50 at 48 h [4]: > 10000 nM; IC50 [5, 14]: 458 nM and 449 nM; EC50 [3, 16]: < 1000 nM; inhibition at 10 µM [3, 18]: 65%; EC50 [3, 17]: 530 ± 570 nM
COc1ccc(/C(C)=N/NC(N)=S)c(OC)c1 [Compound S1k, (E,Z)-2-(1-(2,4-Dimethoxyphenyl)ethylidene)hydrazine-1-carbothioamide]	–	–	39.3	> 100	–	0.7	–	–	–	–
